This note sets out measurements from BindingDB's records for doi:10.1021/acs.jmedchem.8b00106 (China Pharmaceutical University, 2018).

This test is described as follows: Agonist activity at VDR in human HL60 cells assessed as induction of cell differentiation after 96 hrs by NBT assay.

Regarding `CCn1c(C(=O)N(CCC#N)CCC#N)ccc1C(CC)(CC)c1ccc(OCCC(O)(CC)CC)c(C)c1`, the EC50 was above 10000 nM.

Take `C=CCN(C)C(=O)c1ccc(C(CC)(CC)c2ccc(OCCC(O)(CC)CC)c(C)c2)n1CC`: the EC50 was above 10000 nM.

Turning to `C#CCCOC(=O)c1ccc(C(CC)(CC)c2ccc(OCCC(O)(CC)CC)c(C)c2)n1CC`, the EC50 came out at 6030 nM.

On to `CCn1c(C(=O)Oc2ccc(CC(=O)OC)cc2)ccc1C(CC)(CC)c1ccc(OCCC(O)(CC)CC)c(C)c1`, for which the EC50 is above 10000 nM.

For `CCn1c(C(=O)Nc2ccc(OC(F)(F)F)cc2)ccc1C(CC)(CC)c1ccc(OCCC(O)(CC)CC)c(C)c1`, the EC50 is above 10000 nM.

With `CCOc1ccc(NC(=O)c2ccc(C(CC)(CC)c3ccc(OCCC(O)(CC)CC)c(C)c3)n2CC)cc1`, the EC50 amounted to 1630 nM.

On to `CCC(C)C(NC(=O)c1ccc(C(CC)(CC)c2ccc(OCCC(O)(CC)CC)c(C)c2)n1CC)C(=O)OC` (stereo unspecified), for which the EC50 was above 10000 nM.

`CCC(C)C(NC(=O)c1ccc(C(CC)(CC)c2ccc(OCCC(O)(CC)CC)c(C)c2)n1CC)C(=O)O` (stereo unspecified): the EC50 is 860 nM.

In the case of `CCn1c(C(=O)N(C)CC(=O)O)ccc1C(CC)(CC)c1ccc(OCCC(O)(CC)CC)c(C)c1`, the EC50 turned out to be 89 nM.

For `CCn1c(C(=O)NC(C)C(=O)O)ccc1C(CC)(CC)c1ccc(OCCC(O)(CC)CC)c(C)c1` (stereo unspecified), the EC50 was found to be 66 nM.

`CCC(C)C(CO)NC(=O)c1ccc(C(CC)(CC)c2ccc(OCCC(O)(CC)CC)c(C)c2)n1CC` (stereo unspecified): the EC50 amounted to 450 nM.

For `CCn1c(C(=O)N(C)CCO)ccc1C(CC)(CC)c1ccc(OCCC(O)(CC)CC)c(C)c1`, the EC50 is 53 nM.

Regarding `CCn1c(C(=O)NC(C)CO)ccc1C(CC)(CC)c1ccc(OCCC(O)(CC)CC)c(C)c1` (stereo unspecified), the concentration giving a half-maximal response (EC50) turned out to be 96 nM.

For the molecule `CCN(CC)CCCNC(=O)c1ccc(C(CC)(CC)c2ccc(OCCC(O)(CC)CC)c(C)c2)n1CC`, the EC50 was 11 nM.

On to `CCN(CC)CCNC(=O)c1ccc(C(CC)(CC)c2ccc(OCCC(O)(CC)CC)c(C)c2)n1CC`, for which the EC50 amounted to 2.3 nM.

Take `CCn1c(C(=O)NCC#N)ccc1C(CC)(CC)c1ccc(OCCC(O)(CC)CC)c(C)c1`: the EC50 is 1080 nM.

Take `CCn1c(C(=O)NC(C)CO)ccc1C(CC)(CC)c1ccc(OCC(O)C(C)(C)C)c(C)c1` (stereo unspecified): the concentration giving a half-maximal response (EC50) stood at 8.5 nM.

Consider `CCn1c(C(=O)NCCCN(C)C)ccc1C(CC)(CC)c1ccc(OCCC(O)(CC)CC)c(C)c1`, for which the EC50 was found to be 5 nM.

For `CCn1c(C(=O)NCCCN2CCOCC2)ccc1C(CC)(CC)c1ccc(OCCC(O)(CC)CC)c(C)c1`, the EC50 was 238 nM.

For the molecule `CCn1c(C(=O)NCCN(C)C)ccc1C(CC)(CC)c1ccc(OCCC(O)(CC)CC)c(C)c1`, the EC50 was determined as 82 nM.

For the molecule `CCn1c(C(=O)NCCN)ccc1C(CC)(CC)c1ccc(OCCC(O)(CC)CC)c(C)c1`, the EC50 came out at 156 nM.

`C#CC(C)OC(=O)c1ccc(C(CC)(CC)c2ccc(OCCC(O)(CC)CC)c(C)c2)n1CC` (stereo unspecified): the EC50 was found to be 2650 nM.

Take `CCn1c(C(=O)Nc2cccc(C(F)(F)F)c2)ccc1C(CC)(CC)c1ccc(OCCC(O)(CC)CC)c(C)c1`: the EC50 stood at 5900 nM.

Consider `CCOC(=O)CN(C)C(=O)c1ccc(C(CC)(CC)c2ccc(OCCC(O)(CC)CC)c(C)c2)n1CC`, for which the EC50 is 520 nM.

Regarding `CCn1c(C(=O)NC(CC(=O)O)C(=O)OC)ccc1C(CC)(CC)c1ccc(OCCC(O)(CC)CC)c(C)c1` (stereo unspecified), the EC50 was 26 nM.

Consider `CCn1c(C(=O)NC(CO)CCO)ccc1C(CC)(CC)c1ccc(OCCC(O)(CC)CC)c(C)c1` (stereo unspecified), for which the EC50 stood at 2490 nM.
